Test results: PubChem BioAssay AID328 (DTP/NCI, 2004)
Values joined by “and” are separate entries in the source; they are usually repeats but may differ in a detail not shown here. Equal entries are not always repeated. Toxic doses and inconclusive results are not listed.

Tested on: BDF1 mice, P388 leukemia ip, median survival T/C
Assay: NCI In Vivo Anticancer Drug Screen. Data for tumor model P388 Leukemia (intraperitoneal) in B6D2F1 (BDF1) mice
Conditions: endpoint: median survival time, higher = longer survival
In short: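 Survival ratio, drug arm over vehicle arm, in mice with a transplanted tumour.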

[1] = dose: 12.5 mg/kg/injection, schedule: Q01DX009 (ip), vehicle: water
[2] = dose: 12.5 mg/kg/injection, schedule: Q04DX003 (ip), vehicle: water
[3] = dose: 25.0 mg/kg/injection, schedule: Q01DX009 (ip), vehicle: water
[4] = dose: 25.0 mg/kg/injection, schedule: Q04DX003 (ip), vehicle: water
[5] = dose: 50.0 mg/kg/injection, schedule: Q01DX009 (ip), vehicle: water
[6] = dose: 50.0 mg/kg/injection, schedule: Q04DX003 (ip), vehicle: water
[7] = dose: 100.0 mg/kg/injection, schedule: Q01DX009 (ip), vehicle: water
[8] = dose: 100.0 mg/kg/injection, schedule: Q04DX003 (ip), vehicle: water
[9] = dose: 200.0 mg/kg/injection, schedule: Q01DX009 (ip), vehicle: water

O=NN(CCCl)C(=O)NCCCl
T/C (dose: 0.5 mg/kg/injection, schedule: Q01DX001 (ip), vehicle: saline): 111 % of control
T/C (dose: 1.0 mg/kg/injection, schedule: Q01DX001 (ip), vehicle: saline): 105 % of control
T/C (dose: 2.0 mg/kg/injection, schedule: Q01DX009 (ip), vehicle: other): 172 % of control and 180 % of control
T/C (dose: 3.13 mg/kg/injection, schedule: Q01DX010 (ip), vehicle: saline): 255 % of control and 260 % of control
T/C (dose: 3.2 mg/kg/injection, schedule: Q01DX009 (ip), vehicle: saline + alcohol): 195 % of control
T/C (dose: 4.0 mg/kg/injection, schedule: Q01DX009 (ip), vehicle: other): 227 % of control and 276 % of control
T/C (dose: 4.8 mg/kg/injection, schedule: Q01DX009 (ip), vehicle: saline + alcohol): 275 % of control and 276 % of control
T/C (dose: 5.0 mg/kg/injection, schedule: Q01DX001 (ip), vehicle: saline): 164 % of control
T/C (dose: 6.25 mg/kg/injection, schedule: Q01DX010 (ip), vehicle: saline): 300 % of control
T/C (dose: 6.4 mg/kg/injection, schedule: Q01DX009 (ip), vehicle: saline + alcohol): 319 % of control and 532 % of control
T/C (dose: 7.5 mg/kg/injection, schedule: Q01DX001 (ip), vehicle: saline + alcohol): 157 % of control and 200 % of control
T/C (dose: 7.5 mg/kg/injection, schedule: Q01DX001 (ip), vehicle: saline): 211 % of control
T/C (dose: 8.0 mg/kg/injection, schedule: Q01DX009 (ip), vehicle: other): 270 % of control and 514 % of control
T/C (dose: 10.0 mg/kg/injection, schedule: Q01DX001 (ip), vehicle: saline): 212 % of control
T/C (dose: 12.0 mg/kg/injection, schedule: Q01DX001 (ip), vehicle: Klucel (hydroxypropylcellulose) (HPC)): 119 % of control
T/C (dose: 15.0 mg/kg/injection, schedule: Q01DX001 (ip), vehicle: saline + alcohol): 253 % of control and 176 % of control
T/C (dose: 15.0 mg/kg/injection, schedule: Q01DX001 (ip), vehicle: saline): 159 % of control
T/C (dose: 16.0 mg/kg/injection, schedule: Q01DX001 (ip), vehicle: saline + alcohol): 196 % of control
T/C (dose: 16.0 mg/kg/injection, schedule: Q01DX009 (ip), vehicle: other): 100 % of control
T/C (dose: 20.0 mg/kg/injection, schedule: Q01DX001 (ip), vehicle: saline): 238 % of control and 154 % of control
T/C (dose: 20.0 mg/kg/injection, schedule: Q#XHX024 (ip), vehicle: saline): 229 % of control
T/C (dose: 21.6 mg/kg/injection, schedule: Q01DX001 (ip), vehicle: other): 175 % of control
T/C (dose: 21.6 mg/kg/injection, schedule: Q01DX001 (ip), vehicle: saline + alcohol): 152 % of control
T/C (dose: 30.0 mg/kg/injection, schedule: Q01DX001 (ip), vehicle: saline): 247 % of control and 564 % of control and 159 % of control
T/C (dose: 30.0 mg/kg/injection, schedule: Q#XHX024 (ip), vehicle: saline): 546 % of control
T/C (dose: 32.0 mg/kg/injection, schedule: Q01DX001 (ip), vehicle: saline + alcohol): 225 % of control
T/C (dose: 36.0 mg/kg/injection, schedule: Q01DX001 (ip), vehicle: other): 236 % of control
T/C (dose: 36.0 mg/kg/injection, schedule: Q01DX001 (ip), vehicle: saline + alcohol): 499 % of control
T/C (dose: 40.0 mg/kg/injection, schedule: Q01DX001 (ip), vehicle: saline): 266 % of control
T/C (dose: 60.0 mg/kg/injection, schedule: Q01DX001 (ip), vehicle: saline + alcohol): 88 % of control
T/C (dose: 64.0 mg/kg/injection, schedule: Q01DX001 (ip), vehicle: saline + alcohol): 281 % of control

Cc1ccc(C(O)(CS(C)=O)c2ccco2)cc1 (stereo unspecified)
T/C (dose: 50.0 mg/kg/injection, schedule: Q01DX009 (ip), vehicle: saline + alcohol): 98 % of control
T/C (dose: 100.0 mg/kg/injection, schedule: Q01DX009 (ip), vehicle: saline + alcohol): 90 % of control

Clc1cc(Cl)c(CBr)cc1CBr
T/C (dose: 3.13 mg/kg/injection, schedule: Q01DX009 (ip), vehicle: saline with Tween-80): 109 % of control
T/C (dose: 6.25 mg/kg/injection, schedule: Q01DX009 (ip), vehicle: saline with Tween-80): 100 % of control
T/C (dose: 12.5 mg/kg/injection, schedule: Q01DX009 (ip), vehicle: saline with Tween-80): 104 % of control

O=Nc1c(S(=O)(=O)O)cc2cc(S(=O)(=O)O)cc(O)c2c1O.[Cu+2]
T/C (dose: 1.25 mg/kg/injection, schedule: Q04DX003 (ip), vehicle: saline): 97 % of control
T/C (dose: 2.5 mg/kg/injection, schedule: Q04DX003 (ip), vehicle: saline): 91 % of control
T/C (dose: 5.0 mg/kg/injection, schedule: Q04DX003 (ip), vehicle: saline): 115 % of control

CCOC(=O)C(I)CC (stereo unspecified)
T/C (dose: 6.25 mg/kg/injection, schedule: Q04DX003 (ip), vehicle: water): 100 % of control
T/C [1]: 105 % of control
T/C [2]: 100 % of control
T/C [3]: 98 % of control
T/C [4]: 105 % of control
T/C [5]: 107 % of control
T/C [6]: 101 % of control
T/C [7]: 116 % of control
T/C [8]: 96 % of control
T/C [9]: 123 % of control
T/C (dose: 200.0 mg/kg/injection, schedule: Q04DX003 (ip), vehicle: water): 98 % of control and 104 % of control
T/C (dose: 300.0 mg/kg/injection, schedule: Q04DX003 (ip), vehicle: water): 110 % of control
T/C (dose: 400.0 mg/kg/injection, schedule: Q04DX003 (ip), vehicle: water): 104 % of control

COc1cc2c(cc1OC)C(=O)C(c1ccc3c(c1)OCO3)CC2 (stereo unspecified)
T/C [1]: 98 % of control
T/C [2]: 95 % of control
T/C [3]: 93 % of control
T/C [4]: 101 % of control
T/C [5]: 88 % of control and 92 % of control
T/C [6]: 100 % of control
T/C (dose: 75.0 mg/kg/injection, schedule: Q01DX009 (ip), vehicle: water): 93 % of control
T/C [7]: 87 % of control
T/C [8]: 88 % of control
T/C [9]: 91 % of control

CC1=[N+](C)C(C)(C)CC(C)O1 (stereo unspecified)
T/C (dose: 4.5 mg/kg/injection, schedule: Q01DX009 (ip), vehicle: saline): 100 % of control
T/C (dose: 6.25 mg/kg/injection, schedule: Q01DX009 (ip), vehicle: saline): 100 % of control
T/C (dose: 7.0 mg/kg/injection, schedule: Q01DX009 (ip), vehicle: saline): 108 % of control
T/C (dose: 11.0 mg/kg/injection, schedule: Q01DX009 (ip), vehicle: saline): 100 % of control
T/C (dose: 12.5 mg/kg/injection, schedule: Q01DX009 (ip), vehicle: saline): 95 % of control
T/C (dose: 16.5 mg/kg/injection, schedule: Q01DX009 (ip), vehicle: saline): 103 % of control and 104 % of control
T/C (dose: 37.5 mg/kg/injection, schedule: Q01DX009 (ip), vehicle: saline): 92 % of control and 109 % of control
T/C (dose: 200.0 mg/kg/injection, schedule: Q01DX009 (ip), vehicle: saline): 90 % of control

COc1cc2cc(c1Cl)NC(=O)/C=C/[C@]1(C)O[C@H]1[C@H](C)[C@@H]1C[C@@](O)(NC(=O)O1)[C@H](OC)C=C/C=C(\C)C2
T/C (dose: 0.2 micrograms/kg/injection, schedule: Q01DX009 (ip), vehicle: saline + alcohol): 100 % of control
T/C (dose: 0.4 micrograms/kg/injection, schedule: Q01DX009 (ip), vehicle: saline + alcohol): 100 % of control
T/C (dose: 0.8 micrograms/kg/injection, schedule: Q01DX009 (ip), vehicle: saline + alcohol): 90 % of control
T/C (dose: 1.6 micrograms/kg/injection, schedule: Q01DX009 (ip), vehicle: saline + alcohol): 100 % of control
T/C (dose: 3.1 micrograms/kg/injection, schedule: Q01DX009 (ip), vehicle: saline + alcohol): 115 % of control
T/C (dose: 6.2 micrograms/kg/injection, schedule: Q01DX009 (ip), vehicle: saline + alcohol): 115 % of control
T/C (dose: 12.5 micrograms/kg/injection, schedule: Q01DX009 (ip), vehicle: saline + alcohol): 87 % of control and 110 % of control
T/C (dose: 25.0 micrograms/kg/injection, schedule: Q01DX009 (ip), vehicle: saline + alcohol): 87 % of control and 110 % of control
T/C (dose: 50.0 micrograms/kg/injection, schedule: Q01DX009 (ip), vehicle: saline + alcohol): 91 % of control and 110 % of control
T/C (dose: 100.0 micrograms/kg/injection, schedule: Q01DX009 (ip), vehicle: saline + alcohol): 91 % of control and 95 % of control

CC(=O)CC(=O)N1CCCCCC1
T/C (dose: 100.0 mg/kg/injection, schedule: Q01DX009 (ip), vehicle: saline with Tween-80): 89 % of control
T/C (dose: 100.0 mg/kg/injection, schedule: Q04DX003 (ip), vehicle: saline with Tween-80): 109 % of control
T/C (dose: 200.0 mg/kg/injection, schedule: Q01DX009 (ip), vehicle: saline with Tween-80): 92 % of control
T/C (dose: 200.0 mg/kg/injection, schedule: Q04DX003 (ip), vehicle: saline with Tween-80): 90 % of control
T/C (dose: 400.0 mg/kg/injection, schedule: Q01DX009 (ip), vehicle: saline with Tween-80): 107 % of control
T/C (dose: 400.0 mg/kg/injection, schedule: Q04DX003 (ip), vehicle: saline with Tween-80): 104 % of control
